From publication PMC8453114 (Journal of molecular biology, 2021)

What was measured:
HTLV-1 myr(−)MA [1] = target: T1, HTLV-1 myr(−)MA (Human T-cell leukemia virus type I, UniProt Q9QR99); assay: 1H-15N HSQC NMR titration; format: binding
HTLV-1 myr(−)MA [2] = target: T1, HTLV-1 myr(−)MA; assay: 1H NMR liposome; format: binding

Row | SMILES | Kd (HTLV-1 myr(−)MA [1]) [µM] | Kd (HTLV-1 myr(−)MA [2]) [µM]
1 | CCCC(=O)OC[C@H](COP(=O)(O)O[C@@H]1[C@H](O)[C@H](O)[C@@H](OP(=O)(O)O)[C@H](OP(=O)(O)O)[C@H]1O)OC(=O)CCC [diC4-PI(4,5)P2] | 306 ± 30 | –
2 | CCCCCC(=O)OC[C@H](COP(=O)(O)O[C@@H]1[C@H](O)[C@H](O)[C@@H](OP(=O)(O)O)[C@H](OP(=O)(O)O)[C@H]1O)OC(=O)CCCCC [diC6-PI(4,5)P2] | 195 ± 19 | –
3 | O=P(O)(O)O[C@@H]1[C@H](O)[C@H](O)[C@@H](OP(=O)(O)O)[C@H](OP(=O)(O)O)[C@H]1O [IP3, inositol 1,4,5-trisphosphate] | 338 ± 42 | –
4 | CCCCCCCCCCCCCCCC(=O)OC[C@H](COP(=O)(O)O[C@@H]1[C@H](O)[C@H](OP(=O)(O)O)[C@@H](O)[C@H](OP(=O)(O)O)[C@H]1O)OC(=O)CCCCCCCCCCCCCCC [diC16-PI(3,5)P2, dipalmitoyl-phosphatidylinositol 3,5-bisphosphate] | – | 32 ± 2
5 | CCCCCCCC/C=C\CCCCCCCC(=O)O[C@H](COC(=O)CCCCCCCCCCCCCCC)COP(=O)(O)OC[C@H](N)C(=O)O [POPS, 1-palmitoyl-2-oleoyl-sn-glycero-3-phospho-L-serine] | – | 118 ± 16
6 | O=P(O)(O)O[C@H]1[C@H](OP(=O)(O)O)[C@@H](OP(=O)(O)O)[C@H](OP(=O)(O)O)[C@@H](OP(=O)(O)O)[C@H]1OP(=O)(O)O [IP6, inositol hexakisphosphate] | 23 ± 11 | –
